What all share (type): binding
One data set deals with matched DNA target. The data set is described as follows: Melting temperature experiment (dissociation curve) of probe hybridised to matched DNA target. To be noted: for difference between hybridisation temperature to matched and mismatched target: FIG. 3, matched versus mismatched target; for temperature at which the probe hybridises to its matched target: FIG. 3, negative derivative of dissociation curve, 4 mM MgCl2, 50 mM KCl, 10 mM TRIS-HCl, pH=8.0. As to the method: (§1) The measurement was done as a melting temperature experiment on a Mx3000, Stratagene Real-time PCR instrument in a 96-well plate. The measurements were done in a buffer solution reflecting the buffer solutions used in a normal Real-time PCR reaction. The buffer contained 4 mM MgCl2, 50 mM KCl, 10 mM TRIS-HCl, pH=8.0. 1 μL of the Stemless Beacon (5 pmol/μL) and 2 μL of the DNA target sequence (5 pmol/μL) and 22 μL of the buffer mentioned above. First the mixtures were heated to 95° C. for 1 min to denature the secondary structures followed by annealing of the duplexes at 35° C. and ramping up to 95° C. while measuring the signal for every degrees change. Results are shown in FIG. 2, and other details like the sequences of the Stemless Beacons can be seen in the legend to said Figure.
(§2) The Measurements were carried out as described in example 2 above. Result and sequence information can be found in FIG. 3 and in the legend to said figure. The results are shown as the first derivative of the signal against temperature.

In a further data set the test system is mismatched DNA target. Description: Melting temperature experiment (dissociation curve) of probe hybridised to mismatched DNA target. To be noted: for temperature at which the probe hybridises to its mismatched target: FIG. 3, negative derivative of dissociation curve, 4 mM MgCl2, 50 mM KCl, 10 mM TRIS-HCl, pH=8.0. As to the method:
as §1, §2

The next data set deals with Bgal_WT_tar oligo target. Description: Affinity of stemless probes to single stranded oligo target (melt 25-90° C.). Particulars: for Signal (25° C.): fluorescence at 25° C., hybridised to oligo target; for Signal (25° C.) / Signal (90° C.): 280 mM NaCl, 20 mM Na2HPO4 buffer; for Signal (90° C.): fluorescence at 90° C. From the text:
This example illustrates how stemless beacons comprising hydrophobic modifications of the structure: X—Y-Q where X is a backbone monomer unit linked to the oligo by phosphordiester bonds and of the structure —O—CH2—CH2—O—, Y is a —CH2—O—CH2— linker and Q is 1′-pyrene, will have higher affinity towards a fully complementary target sequence than a probe not comprising said hydrophobic modifications.
It can be seen from FIG. 13 that all stemless beacons have the similar or higher affinity for the complementary oligo nucleotide target compared to the corresponding DNA. Furthermore it can be calculated that all of the stemless beacons presented in this example (exclusive probe—1) have a similar or higher signal-to-noise ratio than the DNA probe without hydrophobic modifications (signal at 25 degrees divided by signal at 90 degrees).

Data set [1] concerns nucleotide 2074 of human Andrenogen receptor, wild type (THP cDNA) and A→G mutant (LNCap cDNA). Description: Real-time PCR SNP detection, fluorescence read at 55, 61 and 65° C. The procedure: (§3) A test was setup to see if the used combination of probes would be able to distinguish between the wildtype and the A→G transition mutant. Measurements in this example were carried out on the Real-time PCR machine Rotorgene™ 3000 from Corbett Research.
(§4) In this experiment the mut. specific probe was added together with wt. specific probe in a homogenous assay. The label 1 means the inserted pseudonucleotide or hydrophobic nucleotide (Phosphoramidite of (S)-1-(4,4′-dimethoxytriphenylmethyloxy)-3-pyrenemethyloxy-2-propanol) comprising the hydrophobic, intercalating molecule pyrene (with the number XII from the description above). The label 2 means the inserted pseudonucleotide or hydrophobic nucleotide (Phosphoramidite of 3-(1-O-(4,4′-dimethoxytriphenylmethyl)-2-O-(2-cyanoethyl diisopropylamidophosphite)-1,2-butandiol)-4-N-(7,9-Dimethyl-3H-pyrido[3′,2′:4,5]thieno[3,2-d]pyrimidin-4-one)) (comprising the intercalating hydrophobic group with the number XXVI from the description above). FAM and Hex are fluorophores and BHQ1 is a quencher.
(§5) The template: 2 samples of each with cDNA extracted from either LNCap (mutant) and/or THP (wt) (6 samples overall).
(§6) The Real-Time PCR profile used is depicted in FIG. 14B.

Data set [2] shares this test system. Description: End-point affinity measurements on FAM and HEX channel, SNP detection. The procedure:
as §3, §4, §5, §6

Setting [3] is: Example 2, FIG. 2, methylated/unmethylated bisulphite treated DNA target.

Entries after “also recorded” stand apart in the source; their conditions may differ. {FAM} = fluorescein (FAM) fluorophore label; {BHQ1} = Black Hole Quencher 1

Take “FAM-ATTTTAGGGCGTTTTTTTG-BHQ1 (DNA, 5' {FAM}, 3' {BHQ1}, backbone not given here) [reference compound]”: in the data set on matched DNA target, the “difference between hybridisation temperature to matched and mismatched target” value was 7.8 °C; the “temperature at which the probe hybridises to its matched target” value was determined as 64.9 °C. Besides, in the data set on mismatched DNA target, the “temperature at which the probe hybridises to its mismatched target” value is 57.1 °C.

Consider “FAM-A2AAA2ATCCCG2CGA2ACT-BHQ1 (DNA ANAAANATCCCGNCGANACT; FAM, BHQ1, 4 hydrophobic pseudonucleotide insertions, chemistry not fully specified) [Stemless Beacon]”, for which the “melting temperature of the probe against the fully matched target” value with matched DNA target (setting [3]) was found to be 67 °C. Moreover, in the data set on matched DNA target (FIG. 2, 35 to 95° C.), the “background fluorescence (fluorescence of unbound probe) compared to the Stemless DNA probe” value was “significantly reduced background fluorescence; also recorded: much lower”. For the same substance, the “melting temperature of the probe against the mismatched target” value with mismatched DNA target (setting [3]) was 56 °C.

On to “5′-Fam ACC GAC CCA GCG CCC BHQ1-3′ (DNA ACCGACCCAGCGCCC; reference probe without hydrophobic nucleotides, sugar not given here, further chemistry not given here) [Probe _ref (DNA), DNA probe without hydrophobic modifications, reference compound]”, for which, in the data set with Bgal_WT_tar oligo target, the “Signal (25° C.)” value is 38.11 and the “Signal (90° C.)” value was determined as 8.65. The Signal-to-noise in the data set with Bgal_WT_tar oligo target (signal at 25 degrees divided by signal at 90 degrees) was 4.41.

Turning to “5′-Fam ACC G1A CCC AGC 1GC CC BHQ1-3′ [Probe _5]”, in the data set with Bgal_WT_tar oligo target, the “Signal (25° C.)” value is listed as 50.57 and the “Signal (90° C.)” value came to 7.81.

For the substance “FAM-T2AGG2GCGT2TTTT2T-BHQ1 (DNA TNAGGNGCGTNTTTTNT; FAM, BHQ1, intercalating pseudonucleotide insertions, further chemistry not given here) [SB, 2 = inserted pseudonucleotide comprising intercalating hydrophobic group XXVI]”, in the data set with matched DNA target, the “difference between hybridisation temperature to matched and mismatched target” value came to 13.8 °C; the “temperature at which the probe hybridises to its matched target” value was 63.7 °C. In the data set on matched DNA target (measured as difference in affinity to a matched versus a mismatched target), the “specificity higher than Stemless DNA probe having the same affinity” value is reported as 77%. Besides, the “temperature at which the probe hybridises to its mismatched target” value with mismatched DNA target was determined as 49.9 °C.

For the substance “5′-Fam ACC GAC 1CC A1G CGC CC BHQ1-3′ [Probe _7]”, in the data set with Bgal_WT_tar oligo target, the “Signal (25° C.)” value is on record as 46.92 and the “Signal (90° C.)” value amounted to 7.98.

Consider “HEX-2TCAAA2AGCGA2ACTG2AT-BHQ1 (DNA NTCAAANAGCGANACTGNAT; pseudonucleotide insertions denoted 2, identity not given here, further chemistry not given here) [mut. specific probe, mutant specific probe; 2 = pseudonucleotide with hydrophobic group XXVI]”, for which the “binding of probe in real-time PCR” value is “hybridising specifically to its target” in data set [1] (at 55° C.), “worked fine” in data set [1] (at 61° C.) and “no longer binding” in data set [1] (at 65° C.). In addition, the “width of window distinguishing fully complementary from single nucleotide mismatched target” value in data set [2] (HEX channel, at temperatures above 55° C.) was “at least 10 °C”.

For the substance “5′-Fam ACC GA1 CCC AG1 CGC CC BHQ1-3′ [Probe _6]”, in the data set with Bgal_WT_tar oligo target, the “Signal (25° C.)” value is given as 77.01 and the “Signal (90° C.)” value was found to be 12.85.

For “5′-Fam A1C CGA CCC AGC GCC 1C BHQ1-3′ [Probe _2]”, in the data set with Bgal_WT_tar oligo target, the “Signal (25° C.)” value amounted to 34.12 and the “Signal (90° C.)” value is listed as 4.7.

As to “FAM-T1CAAA1AGTGA1ACTG1AT-BHQ1 (DNA TNCAAANAGTGANACTGNAT; DNA probe with hydrophobic pseudonucleotide insertions denoted 1, structure not given here, further chemistry not given here) [wt specific probe, wild type specific probe; 1 = pyrene pseudonucleotide]”, the “binding of probe in real-time PCR” value is “binds to both the wild type target and the mutant” in data set [1] (at 55° C.); “only a specific signal from wt probe is obtained” in data set [1] (at 61° C.); “only binding to its specific target” in data set [1] (at 65° C.). For the same substance, the “width of window of specific hybridisation” value in data set [2] (FAM channel) is recorded as “approximately 5 degree”.
